With `CCn1cnc2c(Nc3cccc(NC(=O)C#Cc4cccc(C)c4)c3)nc(NC3CCC(O)CC3)nc21` (stereo not shown) [Example 102, 3-m-Tolyl-propynoic acid {3-[9-ethyl-2-(4-hydroxy-cyclohexylamino)-9H-purin-6-ylamino]-phenyl}-amide], the melting point (usually the temperature of the solid-liquid transition) fell in the range of 164 to 171 °C.

The compound `CCn1cnc2c(Nc3cccc(NC(=O)C#Cc4ccc(Cl)cc4)c3)nc(N[C@H]3CC[C@H](O)CC3)nc21` [Example 92, N-{3-[9-Ethyl-2-(trans-4-hydroxy-cyclo-hexylamino)-9H-purin-6-yl-amino]-phenyl}-3-(4-chlorophenyl)-propargylic acid amide] returned a melting point of 148 to 150 °C.

Regarding `CCn1cnc2c(Nc3ccc(NC(=O)OCC(C)C)cc3)nc(N[C@H]3CC[C@H](O)CC3)nc21` [Example 84, {4-[9-Ethyl-2-(trans-4-hydroxy-cyclo-hexylamino)-9H-purin-6-yl-amino]-phenyl}-carbamic acid isobutyl ester], the melting point lay within 121 to 125 °C.

`CCn1cnc2c(Nc3cccc(NC(=O)C#Cc4ccc(OC)cc4)c3)nc(N[C@H]3CC[C@H](O)CC3)nc21` [Example 95, N-{3-[9-Ethyl-2-(trans-4-hydroxy-cyclo-hexylamino)-9H-purin-6-yl-amino]-phenyl}-3-(4-methoxyphenyl)-propargylic acid amide] showed a melting point of 142 to 144 °C.

For the compound `CC(C)n1cnc2c(Nc3cccc(NC(=O)C#Cc4ccccc4)c3)nc(NC3CCC(O)CC3)nc21` (stereo not shown) [Example 100, 3-(Phenyl)-propynoic acid {3-[2-(4-hydroxy-cyclohexylamino)-9-isopropyl-9H-purin-6-ylamino]-phenyl}-amide], the melting point lay within 162 to 164 °C.

Compound `CCn1cnc2c(Nc3cccc(NC(=O)C#CCN4CCN(C)CC4)c3)nc(NC3CCC(O)CC3)nc21` (stereo not shown) [Example 112, 4-(4-Methyl-piperazin-1-yl)-but-2-ynoic acid {3-[9-ethyl-2-(4-hydroxy-cyclohexylamino)-9H-purin-6-ylamino]-phenyl)-amide] displayed a melting point of 115 to 122 °C.

In turn, `CCn1cnc2c(Nc3cccc(NC(=O)C#CCN4CCCCC4)c3)nc(NC3CCC(O)CC3)nc21` (stereo not shown) [Example 111, 4-Piperidin-1-yl-but-2-ynoic acid {3-[9-ethyl-2-(4-hydroxy-cyclohexyl-amino)-9H-purin-6-ylamino]-phenyl}-amide] yielded a melting point of 150 °C.

The compound `CCn1cnc2c(Nc3cccc(NC(=O)C#Cc4cc(C)ccc4C)c3)nc(N[C@H]3CC[C@H](O)CC3)nc21` [Example 109, N-{3-[9-Ethyl-2-(trans-4-hydroxy-cyclo-hexylamino)-9H-purin-6-yl-amino]-phenyl)-3-(2,5-dimethyl-phenyl)-propargylic acid amide] displayed a melting point of 231 to 232 °C.

As to `CCn1cnc2c(Nc3ccc(NC(=O)OC)cc3)nc(N[C@H]3CC[C@H](O)CC3)nc21` [Example 83, {4-(9-Ethyl-2-(trans-4-hydroxy-cyclo-hexylamino)-9H-purin-6-yl-amino]-phenyl)-carbamic acid methyl ester], the melting point is 131 to 135 °C.

In turn, `CCn1cnc2c(Nc3cccc(NC(=O)Oc4ccccc4)c3)nc(N[C@H]3CC[C@H](O)CC3)nc21` registered a melting point of 131 to 134 °C.

Take `CCn1cnc2c(Nc3cccc(NC(=O)C#Cc4c(Cl)cccc4Cl)c3)nc(N[C@H]3CC[C@H](O)CC3)nc21` [Example 107, N-{3-[9-Ethyl-2-(trans-4-hydroxy-cyclo-hexylamino)-9H-purin-6-yl-amino]-phenyl}-3-(2,6-dichlorophenyl)-propargylic acid amide]: the melting point was 234 to 236 °C.

Turning to `CCCCc1ccc(N(c2nc(N[C@H]3CCCC[C@H]3C(N)=O)nc3c2ncn3CC)S(N)(=O)=O)cc1` (relative stereo) [Example 1, cis-2-[6-(4-butyl-aminosulfonyl-phenylamino)-9-ethyl-9H-purin-2-yl-amino]-cyclohexanecarboxylic acid amide], the melting point amounted to 220 °C.

`CCn1cnc2c(Nc3cccc(C(=O)NCc4ccc(C(F)(F)F)cc4)c3)nc(N[C@H]3CC[C@H](O)CC3)nc21` [Example 76, 3-[9-ethyl-2-(trans-4-hydroxy-cyclohexylamino)-9H-purin-6-yl-amino]-N-(4-trifluoromethyl-benzyl)-benzamide] returned a melting point of 129 to 137 °C.

Consider `CCn1cnc2c(Nc3cccc(NC(=O)C#Cc4cccs4)c3)nc(N[C@H]3CC[C@H](O)CC3)nc21` [Example 108, N-{3-[9-Ethyl-2-(trans-4-hydroxy-cyclo-hexylamino)-9H-purin-6-yl-amino]-phenyl}-3-(2-thiophenyl)-propargylic acid amide], for which the melting point was in the range of 158 to 161 °C.

`CC(C)n1cnc2c(Nc3cccc(NC(=O)C#Cc4ccc(Cl)cc4)c3)nc(NC3CCC(O)CC3)nc21` (stereo not shown) [Example 96, 3-(4-Chloro-phenyl)-propynoic acid {3-[2-(4-hydroxy-cyclohexylamino)-9-isopropyl-9H-purin-6-ylamino]-phenyl}-amide] gave a melting point of 156 to 158 °C.

Take `CCn1cnc2c(Nc3cccc(NC(=O)C#Cc4cccc(C(F)(F)F)c4)c3)nc(NC3CCC(O)CC3)nc21` (stereo not shown) [Example 103, 3-(3-Trifluoromethyl-phenyl)-propynoic acid {3-[9-ethyl-2-(4-hydroxy-cyclohexylamino)-9H-purin 6-ylamino]-phenyl}-amide]: the melting point was in the range of 156 to 168 °C.

Regarding `CCn1cnc2c(Nc3cccc(C(=O)NCc4ccc(F)cc4)c3)nc(N[C@H]3CC[C@H](O)CC3)nc21` [Example 73, 3-[9-ethyl-2-(trans-4-hydroxy-cyclohexylamino)-9H-purin-6-yl-amino]-N-(4-fluoro-benzyl)-benzamide], the melting point was 165 to 167 °C.

Regarding `CCn1cnc2c(Nc3cccc(NC(=O)OCC(C)C)c3)nc(N[C@H]3CC[C@H](O)CC3)nc21` [Example 87, {3-[9-Ethyl-2-(trans-4-hydroxy-cyclo-hexylamino)-9H-purin-6-yl-amino]-phenyl}-carbamic acid isobutyl ester], the melting point was 122 to 125 °C.

`CC(C)n1cnc2c(Nc3cccc(NC(=O)c4ccc(-c5ccccc5)cc4)c3)nc(NC3CCC(O)CC3)nc21` (stereo not shown) [Example 101, Biphenyl-4-carboxylic acid {3-[2-(4-hydroxy-cyclohexylamino)-9-isopropyl-9H-purin-6-ylamino]-phenyl]-amide] came in with a melting point of 226 to 228 °C.

`CCn1cnc2c(Nc3cccc(NC(=O)OC)c3)nc(N[C@H]3CC[C@H](O)CC3)nc21` [Example 86, {3-[9-Ethyl-2-(trans-4-hydroxy-cyclo-hexylamino)-9H-purin-6-yl-amino]-phenyl}-carbamic acid methyl ester] returned a melting point of 214 to 217 °C.

With `CCn1cnc2c(Nc3cccc(C(=O)NCc4ccc(OC)cc4)c3)nc(N[C@H]3CC[C@H](O)CC3)nc21` [Example 75, 3-[9-ethyl-2-(trans-4-hydroxy-cyclohexylamino)-9H-purin-6-yl-amino]-N-(4-methoxy-benzyl)-benzamide], the melting point fell in the range of 157 to 158 °C.

The compound `CCn1cnc2c(Nc3cccc(C(=O)NCc4ccccc4)c3)nc(N[C@H]3CC[C@H](O)CC3)nc21` [Example 72, N-benzyl-3-[9-ethyl-2-(trans-4-hydroxy-cyclohexylamino)-9H-purin-6-yl-amino]-benzamide] gave a melting point of 215 °C.

The compound `CCn1cnc2c(Nc3ccc(NC(=O)Oc4ccccc4)cc3)nc(N[C@H]3CC[C@H](O)CC3)nc21` returned a melting point of 135 to 139 °C.

`CCn1cnc2c(Nc3cccc(NS(C)(=O)=O)c3)nc(N[C@H]3CC[C@H](O)CC3)nc21` [Example 80, N-{3-[9-Ethyl-2-(trans-4-hydroxy-cyclo-hexylamino)-9H-purin-6-yl-amino]-phenyl} methanesulfonamide] registered a melting point of 265 to 267 °C.

As for `CC(C)n1cnc2c(Nc3cccc(NC(=O)C#Cc4ccc(F)cc4)c3)nc(NC3CCC(O)CC3)nc21` (stereo not shown) [Example 99, 3-(4-Fluoro-phenyl)-propynoic acid {3-[2-(4-hydroxy-cyclohexylamino)-9-isopropyl-9H-purin-6-ylamino]-phenyl}-amide], the melting point was in the range of 145 to 147 °C.

The compound `CCn1cnc2c(Nc3cccc(NC(=O)C#Cc4ccc(C)c(C)c4)c3)nc(N[C@H]3CC[C@H](O)CC3)nc21` [Example 110, N-(3-[9-Ethyl-2-(trans-4-hydroxy-cyclo-hexylamino)-9H-purin-6-yl-amino]-phenyl}-3-(3,4-dimethyl-phenyl)-propargylic acid amide] displayed a melting point of 146 to 148 °C.

In turn, `CCn1cnc2c(Nc3cccc(NC(=O)C#Cc4ccc(F)cc4)c3)nc(N[C@H]3CC[C@H](O)CC3)nc21` [Example 93, N-{3-[9-Ethyl-2-(trans-4-hydroxy-cyclo-hexylamino)-9H-purin-6-yl-amino]-phenyl}-3-(4-fluorophenyl)-propargylic acid amide] registered a melting point of 144 to 146 °C.

In the case of `CCn1cnc2c(Nc3cccc(NC(=O)C#Cc4nccc(C)n4)c3)nc(NC3CCC(O)CC3)nc21` (stereo not shown) [Example 106, 3-(4-Methyl-pyrimidin-2-yl)-propynoic acid {3-[9-ethyl-2-(4-hydroxy-cyclohexylamino)-9H-purin-6-ylamino]-phenyl}-amide], the melting point lay in the range of 167 to 177 °C.

In turn, `Cc1ccc(C#CC(=O)Nc2cccc(Nc3nc(NC4CCC(O)CC4)nc4c3ncn4C(C)C)c2)cc1` (stereo not shown) [Example 97, 3-p-Tolyl-propynoic acid {3-[2-(4-hydroxy-cyclohexylamino)-9-isopropyl-9H-purin-6-ylamino]-phenyl}-amide] yielded a melting point of 152 to 154 °C.

In turn, `COc1ccc(C#CC(=O)Nc2cccc(Nc3nc(NC4CCC(O)CC4)nc4c3ncn4C(C)C)c2)cc1` (stereo not shown) [Example 98, 3-(4-Methoxy-phenyl)-propynoic acid {3-[2-(4-hydroxy-cyclohexyl-amino)-9-isopropyl-9H-purin-6-ylamino]-phenyl)-amide] gave a melting point of 246 to 248 °C.

`CCn1cnc2c(Nc3cccc(NS(=O)(=O)c4ccc(OC)cc4)c3)nc(N[C@H]3CC[C@H](O)CC3)nc21` [Example 82, N-{3-[9-Ethyl-2-(trans-4-hydroxy-cyclo-hexylamino)-9H-purin-6-yl-amino]-phenyl}-4-methoxy-benzenesulfonamide]: the melting point lay in the range of 140 to 143 °C.

The values are drawn from US6767906B2, “2-amino-6-anilino-purines and their use as medicaments” (Novartis AG, priority 1999, dated 2004).
